Measured values reported in patent publication US10166271B2, “Methods for promoting hair growth” (THE REGENTS OF THE UNIVERSITY OF CALIFORNIA, priority 2006, dated 2019).
Where “and” joins values, the source holds several entries; their conditions need not be identical. Equal values may be shown once.

How the values were obtained:
CRF-OE mice [1] = assay: Hair growth and skin pigmentation after sc injection in adult alopecic CRF-OE mice (Example 1); format: in vivo; details: for Back Hair Growth Score (BK) / Skin pigmentation (Pg) score: score 0-10, individual mice
Excerpt: Adult (6-9 month old) male and female C57BL/6 mice that overexpress a rat CRF transgene (Stenzel-Poore et al., Endocrinol., 130:3378-3386, 1992) were used in this Example. […] Moreover, these animals display physical changes, such as excess abdominal fat accumulation, muscle atrophy, thin skin, and alopecia on the back and ventral abdomen area. Alopecia in these animals develops after about 7-8 weeks of age and is fully developed at about 4 months of age. This phenotype, i.e., hair loss in adulthood, is similar to that observed in some forms of human alopecia (e.g., the age-dependent balding of adult, human males (and females)).
CRF-OE mice were housed in standard plastic cages in a controlled environment (temperature=21-23° C.; humidity=30-35%; 12-hour light cycle with lights on 06:00 AM) and fed a standard rodent diet (PROLAB™ RMH 2500). Experiments were conducted in accordance with institutional guidelines.
Eight (8) male and 9 female CRF-OE mice were injected subcutaneously with 5 μg/mouse astressin B or astressin 2B, in 0.1 ml sterile water, once per day for 5 consecutive days. Similar doses of astressin B and astressin 2B previously were shown, respectively, to inhibit elevated ACTH release in adrenalectomized rats for over 12 hours (Rivier et al., J. Med. Chem., 42:3175-3182, 1999) and delay gastric emptying for over 6 hours (Rivier et al., J. Med. Chem., 45:4737-4747, 2002). […] CRF-OE mice similarly injected with saline alone were used as negative controls. Astressin B and astressin 2B peptides were synthesized as previously described (Rivier et al., J. Med. Chem., 45:4737-4747, 2002; Gulyas et al., Proc. Natl. Acad. Sci. USA, 92:10575-10579, 1995) and were diluted with sterile water immediately preceding each injection.
It appeared that hair growth (if any) typically was completed by 4 weeks post-treatment.
Hair growth in CRF-OE mice was assessed using the hair growth scale developed by Vegesna et al. […], 2002) modified to account for phenotypic differences between CRF-OE mice. Scores were made visually as well as using photographs of each mouse at a weekly interval. The degree of alopecia varied between individual CRF-OE mice; thus, the percent difference between the amount of hair present in the test area (described below) before and 4 weeks after treatment was converted to a score of 0-10. A zero score corresponded to a no change in the amount of hair in the test area and a score of 10 corresponded to full hair growth in the entire test area. The scale for monitoring hair growth in CRF-OE mice is more particularly described in Table 2.
The area was defined anteriorly by a line joining the front of the ears; posteriorly by a line joining the pelvic girdles; and laterally, between the lines projecting caudally from each ear root.
Pigmentation of the skin (also referred to as skin color) in the test region was also measured because, in C57BL/6 mice, the skin darkens at the onset of hair growth. A pigmentation score from 0-10 was given to each mouse with a score of 0 corresponding to bright pink skin color/pigment in the entire test region, a score of 1-5 corresponding to increasing intensity of a pale greyish color/pigment of skin in the test region, a score of 6-9 corresponding to increasing but non-confluent darker color/pigment of skin in the test region, and a score of 10 corresponding to black pigmentation of the entire test region. Pigmentation was measured one week after the fifth and final injection because changes (if any) in pigmentation are substantially complete by that time.

[2] = system: hair follicles of CRF-OE mice; assay: Histology of dorsal skin hair follicles (H/E) in CRF-OE mice (Example 3); format: in vivo; details: for Hair follicle morphology: H/E-stained skin sections of adult CRF-OE mice; for Skin thickness or hair follicle numbers versus wild type mice: adult CRF-OE mice
Excerpt: Wild-type (C57BL/6) mice, saline-treated CRF-OE mice, CRF-OE mice treated with astressin B or astressin 2B as described in Example 1 (sc injection), and adult CRF-OE mice treated with astressin 2B as described in Example 2 (ip injection), were euthanized, Male mice were used in each case. Whole dorsal skin pieces were harvested for histology four weeks after the final sc injection of the respective peptides or two weeks after ip astressin B or saline injection.
Skin samples were fixed in 4% paraformaldehyde. Paraffin-embedded sections were processed for staining of hematoxylin/eosin and examined by light microscopy. The thickness of the epidermis plus dermis and depth of hair follicles were measured and the number of hair follicles was counted per unit (a field obtained with 10× objective) in a total of 5 units per section.

ACTH release = details: adrenalectomized rats; similar doses; Rivier et al. 1999; cited from earlier work
young CRF-OE mice [3] = assay: Prevention of hair loss in young (not-yet-alopecic) CRF-OE mice, sc injection (Example 4); format: in vivo; details: for Skin pigmentation (Pg) score / Ventral Abdomen Hair Score (VAb) / Back Hair Score (BK): sc 5 μg/mouse/day x 5 days, individual mice and group mean; for Skin pigmentation (Pg) score / Ventral Abdomen Hair Score (VAb) / Induction of skin pigmentation / Hair loss / development of alopecia / Back Hair Score (BK): young CRF-OE mice; for Induction of skin pigmentation: first week post injection; for Hair loss / development of alopecia: week 4 to week 16 post treatment
Method: Alopecia in this strain fully develops in adulthood at approximately 12 weeks and older.
Young CRF-OE mice (5-6 weeks old) were treated with astressin B, astressin 2B, or vehicle (saline). Treatments were a single, daily subcutaneous injection (0.1 ml volume) of vehicle alone or 5 μg peptide per mouse for five consecutive days. Pigmentation and hair coverage scores were determined pretreatment and 1, 4, 8 and 16 weeks after the last treatment. Hair growth and pigmentation were determined as described in Examples 1 and 2.

CRF-OE mice [4] = assay: Subcutaneous implanted mini-pump in CRF-OE mice, hair growth; format: in vivo; details: 10 μg/mouse/day for 7 days, implanted mini-pump sc; CRF-OE male and female mice 5-7 months old
Excerpt: Eight (8) out of 9 (89%) female mice responded to injected (sc) astressin B with increased pigmentation and hair growth. The remaining […] female mice were observed qualitatively. Similarly, 4 out of 4 (100%) of the male mice responded to astressin B with increased pigmentation and hair growth. In contrast, none of the astressin 2B-injected mice (0%) grew significant amounts of hair.

young CRF-OE mice [5] = assay: Astressin B fragments, prevention of hair loss in young CRF-OE mice (Example 9); format: in vivo; details: 5 μg sc or ip x 5 days, all time points
Method: CRF-OE mice similarly injected with 0.1 ml saline alone (or 5 μg astressin 2B in 0.1 ml saline) are used as negative controls. Astressin B fragments are as described in Example 8.

[6] = similar doses; Rivier et al. 2002; cited from earlier work
[7] = sc 5 μg/mouse/day x 5 days, adult CRF-OE mice, Week 0 (before injection), female mice
[8] = sc 5 μg/mouse/day x 5 days, adult CRF-OE mice, Week 0 (before injection), male mice
[9] = sc 5 μg/mouse/day x 5 days, adult CRF-OE mice, Week 1 after last injection, female mice
[10] = sc 5 μg/mouse/day x 5 days, adult CRF-OE mice, Week 1 after last injection, male mice
[11] = sc 5 μg/mouse/day x 5 days, adult CRF-OE mice, Week 0 (before injection)
[12] = sc 5 μg/mouse/day x 5 days, adult CRF-OE mice, Week 1 after last injection

(cyclo 30-33)[DPhe12, Nle21,38, Cml27,40, Glu30, Lys33]Ac-h/rCRF9-41 [Astressin B]
Mice responding with increased pigmentation and hair growth (CRF-OE mice [1]; female CRF-OE mice, 8 out of 9, sc): 89%
Mice responding with increased pigmentation and hair growth (CRF-OE mice [1]; male CRF-OE mice, 4 out of 4, sc): 100%
Back Hair Growth Score (BK) (CRF-OE mice [1]; [7]): 0 (5×) and 1
Skin pigmentation (Pg) score (CRF-OE mice [1]; [7]): 0
Back Hair Growth Score (BK) (CRF-OE mice [1]; [8]): 0 (2×) and 1 (2×)
Skin pigmentation (Pg) score (CRF-OE mice [1]; [8]): 0
Back Hair Growth Score (BK) (CRF-OE mice [1]; [9]): 2 (5×) and 1
Skin pigmentation (Pg) score (CRF-OE mice [1]; [9]): 2 and 8 (2×) and 10 and 0 and 7
Back Hair Growth Score (BK) (CRF-OE mice [1]; [10]): 2 (2×) and 1 (2×)
Skin pigmentation (Pg) score (CRF-OE mice [1]; [10]): 10 (2×) and 7 and 4
Back Hair Growth Score (BK) (CRF-OE mice [1]; sc 5 μg/mouse/day x 5 days, adult CRF-OE mice, Week 4 after last injection, female mice): 2 and 8 (2×) and 9 (2×) and 0
Back Hair Growth Score (BK) (CRF-OE mice [1]; sc 5 μg/mouse/day x 5 days, adult CRF-OE mice, Week 4 after last injection, male mice): 8 and 9 and 7 and 6
Hair growth maintained post treatment (CRF-OE mice [1]; sc, adult CRF-OE mice): at least 4 weeks
Onset of hair growth (CRF-OE mice [1]; sc, adult CRF-OE mice, FIG. 1B): as early as one week after the last injection
Hair growth coverage (CRF-OE mice [1]; sc, range over treated adult CRF-OE mice): 20-90%
Hair growth substantially maintained without subsequent treatment (CRF-OE mice [1]; two adult CRF-OE mice observed for an extended period, post treatment): up to 4 months
Hair follicle morphology [2]: more developed and defined in structure
Skin thickness or hair follicle numbers versus wild type mice [2]: no significant differences
Average depth of hair follicles ([2]; treated adult CRF-OE mice (FIG. 3B, 4 weeks after last sc treatment), not significantly different from wild type): 0.42±0.05 mm
Duration of inhibition of elevated ACTH release (ACTH release): over 12 hours
Mice with dark pigmentation of the skin (young CRF-OE mice [3]; 1 week after the last injection, fraction of mice): 5/5
Mice with little or less hair loss (as compared to vehicle-treated subjects) (young CRF-OE mice [3]; by 4, 8 and 16 weeks after the last injection, fraction of mice): 4/5
Skin pigmentation (Pg) score (young CRF-OE mice [3]; Before (Week 0)): 0
Ventral Abdomen Hair Score (VAb) (young CRF-OE mice [3]; Week 4): 10
Induction of skin pigmentation (young CRF-OE mice [3]): induced skin pigmentation within one week after the final injection
Hair loss / development of alopecia (young CRF-OE mice [3]): remained protected from developing full alopecia
Hair loss / development of alopecia (young CRF-OE mice [3]; listed as astressin 1): started to lose hair gradually 2 months after treatment

cyclo(31-34)[DPhe11, His12, CαMeLeu13,39, Nle17, Glu31, Lys34]Ac-Sau(8-40) [Astressin 2B, reference compound]
Mice that grew significant amounts of hair (CRF-OE mice [1]; sc 5 μg/mouse/day x 5 days, adult CRF-OE mice): 0%
Back Hair Growth Score (BK) (CRF-OE mice [1]; [11]): 0 (2×) and 5
Skin pigmentation (Pg) score (CRF-OE mice [1]; [11]): 0
Back Hair Growth Score (BK) (CRF-OE mice [1]; [12]): 0
Skin pigmentation (Pg) score (CRF-OE mice [1]; [12]): 1 and 2 (2×)
Back Hair Growth Score (BK) (CRF-OE mice [1]; sc 5 μg/mouse/day x 5 days, adult CRF-OE mice, Week 4 after last injection): 0
Hair growth for 1 month post treatment (CRF-OE mice [4]): no hair growth was observed
Hair follicle morphology [2]: did not have the normal morphology found in wild-type mice
Skin thickness or hair follicle numbers versus wild type mice [2]: no significant differences
Hair in the test area (young CRF-OE mice [5]): develop ultimately alopecia in the test area
Duration of delay of gastric emptying [6]: over 6 hours
Back Hair Score (BK) (young CRF-OE mice [3]; Before (Week 0)): 9
Skin pigmentation (Pg) score (young CRF-OE mice [3]; Before (Week 0)): 0
Back Hair Score (BK) (young CRF-OE mice [3]; Week 1): 9
Ventral Abdomen Hair Score (VAb) (young CRF-OE mice [3]; Week 16): 2.5
Induction of skin pigmentation (young CRF-OE mice [3]): moderate induction of skin pigments
Hair loss / development of alopecia (young CRF-OE mice [3]): lost hair and developed full alopecia
